Data from ChEMBL document CHEMBL5705888, “Substrate specificity and inhibitors of LRRK2, a protein kinase mutated in Parkinson's disease” (Biochem J, 2009).

Legend:
[1] = biological target: Receptor tyrosine-protein kinase erbB-4 (Homo sapiens) (UniProt Q15303); assay: Inhibition of HER4 (unknown origin) at 10 uM incubated for 30 mins in presence of [gamma-33P]ATP by multidrop micro reagent based assay relative to control; values are per cent of control
[2] = biological target: Insulin receptor-related protein (Homo sapiens) (UniProt P14616); assay: Inhibition of IRR (unknown origin) at 10 uM incubated for 30 mins in presence of [gamma-33P]ATP by multidrop micro reagent based assay relative to control
[3] = biological target: T1, Serine/threonine-protein kinase BRSK2 (Homo sapiens) (UniProt Q8IWQ3); assay: Inhibition of BRSK2 (unknown origin) at 10 uM incubated for 30 mins in presence of [gamma-33P]ATP by multidrop micro reagent based assay relative to control
T1 sequence (whole entry): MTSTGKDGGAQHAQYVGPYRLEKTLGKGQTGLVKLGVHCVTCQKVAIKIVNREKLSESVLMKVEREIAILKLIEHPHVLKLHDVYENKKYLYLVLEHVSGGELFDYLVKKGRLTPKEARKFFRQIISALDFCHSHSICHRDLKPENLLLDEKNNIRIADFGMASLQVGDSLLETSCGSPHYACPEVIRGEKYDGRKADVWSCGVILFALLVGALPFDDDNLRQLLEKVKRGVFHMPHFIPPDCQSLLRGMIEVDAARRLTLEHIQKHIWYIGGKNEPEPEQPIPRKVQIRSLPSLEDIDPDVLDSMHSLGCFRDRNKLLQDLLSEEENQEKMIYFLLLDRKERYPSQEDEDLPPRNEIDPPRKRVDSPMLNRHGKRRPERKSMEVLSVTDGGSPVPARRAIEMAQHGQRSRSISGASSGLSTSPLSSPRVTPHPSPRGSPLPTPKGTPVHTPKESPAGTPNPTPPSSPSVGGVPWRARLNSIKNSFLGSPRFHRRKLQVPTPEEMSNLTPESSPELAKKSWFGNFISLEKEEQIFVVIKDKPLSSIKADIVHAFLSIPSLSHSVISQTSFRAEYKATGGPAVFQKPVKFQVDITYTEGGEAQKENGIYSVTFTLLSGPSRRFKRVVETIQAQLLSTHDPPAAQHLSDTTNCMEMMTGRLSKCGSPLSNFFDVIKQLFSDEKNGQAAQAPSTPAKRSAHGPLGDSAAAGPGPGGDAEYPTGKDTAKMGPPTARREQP

[4] = biological target: MAP kinase-interacting serine/threonine-protein kinase 2 (Homo sapiens) (UniProt Q9HBH9); assay: Inhibition of MNK2 (unknown origin) at 10 uM incubated for 30 mins in presence of [gamma-33P]ATP by multidrop micro reagent based assay relative to control; values are per cent of control
Homo sapiens [5] = species: Homo sapiens; assay: Residual activity of VEGFR (unknown origin) at 10 uM incubated for 30 mins in presence of [gamma-33P]ATP by multidrop micro reagent based assay relative to control
[6] = test system: Leucine-rich repeat serine/threonine-protein kinase 2 (Homo sapiens), Q5S007 [G2019S]; assay: Inhibition of LRRK2 G2019S mutant (unknown origin) at 10 uM incubated for 30 mins in presence of [gamma-33P]ATP by multidrop micro reagent based assay relative to control
[7] = biological target: AMP-activated protein kinase, AMPK (Homo sapiens) (UniProt P54646+O43741+P54619+Q9UGJ0+Q9Y478+Q13131+Q9UGI9); assay: Inhibition of AMPK (unknown origin) at 10 uM incubated for 30 mins in presence of [gamma-33P]ATP by multidrop micro reagent based assay relative to control; format: protein-complex assay
[8] = biological target: Serine/threonine-protein kinase PAK 5 (Homo sapiens) (UniProt Q9P286); assay: Inhibition of PAK5 (unknown origin) at 10 uM incubated for 30 mins in presence of [gamma-33P]ATP by multidrop micro reagent based assay relative to control; values are per cent of control
[9] = biological target: Homeodomain-interacting protein kinase 2 (Homo sapiens) (UniProt Q9H2X6); assay: Inhibition of HIPK2 (unknown origin) at 10 uM incubated for 30 mins in presence of [gamma-33P]ATP by multidrop micro reagent based assay relative to control; values are per cent of control
Homo sapiens [10] = species: Homo sapiens; assay: Inhibition of CDK2/cyclin A (unknown origin) at 1 uM incubated for 30 mins in presence of [gamma-33P]ATP by multidrop micro reagent based assay relative to control; values are per cent of control
[11] = biological target: T2, Serine/threonine-protein kinase Sgk1 (Homo sapiens) (UniProt O00141); assay: Inhibition of SGK1 (unknown origin) at 1 uM incubated for 30 mins in presence of [gamma-33P]ATP by multidrop micro reagent based assay relative to control; values are per cent of control
T2 sequence (whole entry): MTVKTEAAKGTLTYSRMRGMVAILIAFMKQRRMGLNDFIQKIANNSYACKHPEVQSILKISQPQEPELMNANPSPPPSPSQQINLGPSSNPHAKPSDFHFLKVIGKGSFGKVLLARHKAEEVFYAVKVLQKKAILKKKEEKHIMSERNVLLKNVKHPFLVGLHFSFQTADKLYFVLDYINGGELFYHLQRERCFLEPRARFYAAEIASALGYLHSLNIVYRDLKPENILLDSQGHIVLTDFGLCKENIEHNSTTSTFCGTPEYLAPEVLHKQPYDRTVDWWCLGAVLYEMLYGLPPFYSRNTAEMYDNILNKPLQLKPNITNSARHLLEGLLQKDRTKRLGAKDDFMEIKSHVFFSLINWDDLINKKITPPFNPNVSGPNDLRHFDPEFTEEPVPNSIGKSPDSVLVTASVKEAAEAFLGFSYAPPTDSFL

Homo sapiens [12] = species: Homo sapiens; assay: Inhibition of VEGFR (unknown origin) at 1 uM incubated for 30 mins in presence of [gamma-33P]ATP by multidrop micro reagent based assay relative to control; values are per cent of control
[13] = biological target: SRSF protein kinase 1 (Homo sapiens) (UniProt Q96SB4); assay: Inhibition of SRPK1 (unknown origin) at 1 uM incubated for 30 mins in presence of [gamma-33P]ATP by multidrop micro reagent based assay relative to control; values are per cent of control
[14] = biological target: Casein kinase 2 (Homo sapiens) (UniProt P67870+P68400+P19784+Q8NEV1); assay: Inhibition of CK2 (unknown origin) at 1 uM incubated for 30 mins in presence of [gamma-33P]ATP by multidrop micro reagent based assay relative to control; values are per cent of control
[15] = biological target: T1, Serine/threonine-protein kinase BRSK2 (Homo sapiens); assay: Inhibition of BRSK2 (unknown origin) at 1 uM incubated for 30 mins in presence of [gamma-33P]ATP by multidrop micro reagent based assay relative to control; values are per cent of control

Chain of Homeodomain-interacting protein kinase 2 (Homo sapiens) (Q9H2X6 whole entry, looked up): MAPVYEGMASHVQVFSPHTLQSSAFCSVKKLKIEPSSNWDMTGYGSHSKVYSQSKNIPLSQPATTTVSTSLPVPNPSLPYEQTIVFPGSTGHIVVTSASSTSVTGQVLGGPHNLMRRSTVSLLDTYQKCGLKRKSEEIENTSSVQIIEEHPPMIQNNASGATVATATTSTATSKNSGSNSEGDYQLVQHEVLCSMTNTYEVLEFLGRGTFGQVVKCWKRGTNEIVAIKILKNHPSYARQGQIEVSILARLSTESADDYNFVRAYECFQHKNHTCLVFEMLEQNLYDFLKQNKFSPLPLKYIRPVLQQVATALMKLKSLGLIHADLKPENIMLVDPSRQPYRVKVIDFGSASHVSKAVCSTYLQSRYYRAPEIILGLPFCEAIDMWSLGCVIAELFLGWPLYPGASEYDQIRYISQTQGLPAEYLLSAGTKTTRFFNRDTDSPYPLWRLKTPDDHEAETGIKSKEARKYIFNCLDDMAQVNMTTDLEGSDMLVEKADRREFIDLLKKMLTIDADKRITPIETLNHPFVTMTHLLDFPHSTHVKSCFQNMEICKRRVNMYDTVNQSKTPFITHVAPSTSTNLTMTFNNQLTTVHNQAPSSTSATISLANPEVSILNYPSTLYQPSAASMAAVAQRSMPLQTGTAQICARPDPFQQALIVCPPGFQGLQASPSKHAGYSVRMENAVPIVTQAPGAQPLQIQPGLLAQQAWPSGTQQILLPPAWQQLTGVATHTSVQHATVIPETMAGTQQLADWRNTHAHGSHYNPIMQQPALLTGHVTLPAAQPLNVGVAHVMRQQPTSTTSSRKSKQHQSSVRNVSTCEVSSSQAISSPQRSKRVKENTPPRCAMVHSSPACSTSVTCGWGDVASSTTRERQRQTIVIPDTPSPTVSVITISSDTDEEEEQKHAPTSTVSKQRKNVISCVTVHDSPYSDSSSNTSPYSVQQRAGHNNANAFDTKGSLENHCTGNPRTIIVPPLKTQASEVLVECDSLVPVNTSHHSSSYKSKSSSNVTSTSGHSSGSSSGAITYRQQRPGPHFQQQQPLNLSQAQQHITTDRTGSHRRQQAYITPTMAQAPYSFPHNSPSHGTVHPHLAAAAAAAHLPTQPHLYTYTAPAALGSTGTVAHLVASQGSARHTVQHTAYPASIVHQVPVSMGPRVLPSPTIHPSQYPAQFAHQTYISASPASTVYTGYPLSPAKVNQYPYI
Chain of Leucine-rich repeat serine/threonine-protein kinase 2 (Homo sapiens), Q5S007 [G2019S] (Q5S007 whole entry G2019S): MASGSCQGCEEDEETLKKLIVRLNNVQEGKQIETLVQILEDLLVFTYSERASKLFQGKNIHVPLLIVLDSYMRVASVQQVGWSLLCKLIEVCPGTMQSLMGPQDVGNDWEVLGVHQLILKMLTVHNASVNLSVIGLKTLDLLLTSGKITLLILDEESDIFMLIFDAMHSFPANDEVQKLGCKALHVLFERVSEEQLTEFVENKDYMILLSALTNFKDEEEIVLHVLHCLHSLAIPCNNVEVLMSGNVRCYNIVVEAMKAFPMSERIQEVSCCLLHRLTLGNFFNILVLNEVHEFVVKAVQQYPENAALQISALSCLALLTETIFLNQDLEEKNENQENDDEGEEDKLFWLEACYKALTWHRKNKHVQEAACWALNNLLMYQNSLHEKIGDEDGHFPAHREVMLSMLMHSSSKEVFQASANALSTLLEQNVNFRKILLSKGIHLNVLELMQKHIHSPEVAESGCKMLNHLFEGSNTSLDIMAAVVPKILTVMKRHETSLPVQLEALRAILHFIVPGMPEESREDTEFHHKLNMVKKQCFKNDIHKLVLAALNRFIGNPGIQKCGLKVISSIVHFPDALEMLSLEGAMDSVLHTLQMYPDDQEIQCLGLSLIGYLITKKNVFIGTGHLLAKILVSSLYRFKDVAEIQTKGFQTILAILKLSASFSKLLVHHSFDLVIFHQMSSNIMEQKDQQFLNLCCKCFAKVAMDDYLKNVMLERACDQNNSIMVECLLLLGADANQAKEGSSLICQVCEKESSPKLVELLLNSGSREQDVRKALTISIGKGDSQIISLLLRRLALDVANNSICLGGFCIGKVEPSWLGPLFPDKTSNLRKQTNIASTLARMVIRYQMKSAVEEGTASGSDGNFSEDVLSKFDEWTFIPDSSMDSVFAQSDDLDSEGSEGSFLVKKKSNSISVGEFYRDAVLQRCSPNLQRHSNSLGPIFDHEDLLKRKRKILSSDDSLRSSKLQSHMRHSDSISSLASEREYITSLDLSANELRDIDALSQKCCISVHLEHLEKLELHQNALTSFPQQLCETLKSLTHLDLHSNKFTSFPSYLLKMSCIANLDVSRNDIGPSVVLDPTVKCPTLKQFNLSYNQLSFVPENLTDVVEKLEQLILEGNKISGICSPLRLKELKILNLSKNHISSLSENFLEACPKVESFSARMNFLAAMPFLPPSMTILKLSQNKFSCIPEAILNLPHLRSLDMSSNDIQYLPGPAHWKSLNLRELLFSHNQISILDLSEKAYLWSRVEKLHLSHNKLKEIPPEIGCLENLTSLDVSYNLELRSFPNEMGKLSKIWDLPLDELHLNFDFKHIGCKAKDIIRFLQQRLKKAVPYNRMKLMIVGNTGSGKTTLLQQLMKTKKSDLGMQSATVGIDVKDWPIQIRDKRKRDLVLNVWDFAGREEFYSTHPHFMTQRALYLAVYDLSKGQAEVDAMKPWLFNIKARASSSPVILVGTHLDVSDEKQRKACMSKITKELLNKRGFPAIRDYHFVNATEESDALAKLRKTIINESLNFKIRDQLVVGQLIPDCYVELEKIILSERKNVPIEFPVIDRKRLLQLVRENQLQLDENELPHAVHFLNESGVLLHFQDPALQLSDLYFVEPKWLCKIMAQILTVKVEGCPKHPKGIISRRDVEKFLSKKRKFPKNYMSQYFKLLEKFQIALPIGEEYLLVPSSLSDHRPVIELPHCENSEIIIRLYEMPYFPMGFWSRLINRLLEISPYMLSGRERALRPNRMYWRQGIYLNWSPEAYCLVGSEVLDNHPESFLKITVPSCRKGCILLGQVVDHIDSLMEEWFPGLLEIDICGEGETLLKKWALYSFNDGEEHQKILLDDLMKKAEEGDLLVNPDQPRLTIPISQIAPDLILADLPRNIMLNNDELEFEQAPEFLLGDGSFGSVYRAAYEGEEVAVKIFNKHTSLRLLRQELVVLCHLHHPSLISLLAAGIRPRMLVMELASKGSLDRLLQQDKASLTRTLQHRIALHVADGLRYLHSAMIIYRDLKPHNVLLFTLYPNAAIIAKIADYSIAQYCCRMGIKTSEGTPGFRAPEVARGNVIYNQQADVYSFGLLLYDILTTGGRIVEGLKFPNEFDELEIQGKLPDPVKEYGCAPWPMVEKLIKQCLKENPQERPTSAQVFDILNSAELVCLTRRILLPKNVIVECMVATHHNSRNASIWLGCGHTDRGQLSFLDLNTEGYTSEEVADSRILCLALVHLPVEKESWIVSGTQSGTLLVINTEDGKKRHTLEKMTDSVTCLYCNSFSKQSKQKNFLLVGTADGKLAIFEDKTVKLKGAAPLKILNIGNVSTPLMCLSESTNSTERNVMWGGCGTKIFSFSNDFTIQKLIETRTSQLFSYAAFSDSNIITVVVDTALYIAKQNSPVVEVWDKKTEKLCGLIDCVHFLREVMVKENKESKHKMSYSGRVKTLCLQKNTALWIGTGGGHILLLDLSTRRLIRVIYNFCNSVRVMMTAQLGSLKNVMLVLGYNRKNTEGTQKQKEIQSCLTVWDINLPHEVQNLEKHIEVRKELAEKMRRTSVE
Chain of SRSF protein kinase 1 (Homo sapiens) (Q96SB4 whole entry): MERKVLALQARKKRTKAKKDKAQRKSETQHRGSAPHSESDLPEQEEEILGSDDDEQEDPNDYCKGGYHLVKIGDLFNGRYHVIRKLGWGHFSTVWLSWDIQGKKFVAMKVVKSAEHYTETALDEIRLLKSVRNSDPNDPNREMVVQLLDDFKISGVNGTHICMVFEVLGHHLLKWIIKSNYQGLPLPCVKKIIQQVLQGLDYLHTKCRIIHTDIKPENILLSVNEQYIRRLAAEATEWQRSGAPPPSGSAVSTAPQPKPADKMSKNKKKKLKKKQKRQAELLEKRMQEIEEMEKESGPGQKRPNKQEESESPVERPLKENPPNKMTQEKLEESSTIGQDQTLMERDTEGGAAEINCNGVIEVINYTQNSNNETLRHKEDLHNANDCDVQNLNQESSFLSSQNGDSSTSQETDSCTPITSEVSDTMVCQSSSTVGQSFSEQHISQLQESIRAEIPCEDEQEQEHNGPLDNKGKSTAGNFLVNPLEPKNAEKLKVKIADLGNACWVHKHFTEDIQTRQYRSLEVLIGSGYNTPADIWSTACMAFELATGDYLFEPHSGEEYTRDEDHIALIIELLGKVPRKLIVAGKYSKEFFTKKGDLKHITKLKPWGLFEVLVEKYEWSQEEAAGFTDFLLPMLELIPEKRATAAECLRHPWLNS
Chain of Serine/threonine-protein kinase PAK 5 (Homo sapiens) (Q9P286 whole entry, looked up): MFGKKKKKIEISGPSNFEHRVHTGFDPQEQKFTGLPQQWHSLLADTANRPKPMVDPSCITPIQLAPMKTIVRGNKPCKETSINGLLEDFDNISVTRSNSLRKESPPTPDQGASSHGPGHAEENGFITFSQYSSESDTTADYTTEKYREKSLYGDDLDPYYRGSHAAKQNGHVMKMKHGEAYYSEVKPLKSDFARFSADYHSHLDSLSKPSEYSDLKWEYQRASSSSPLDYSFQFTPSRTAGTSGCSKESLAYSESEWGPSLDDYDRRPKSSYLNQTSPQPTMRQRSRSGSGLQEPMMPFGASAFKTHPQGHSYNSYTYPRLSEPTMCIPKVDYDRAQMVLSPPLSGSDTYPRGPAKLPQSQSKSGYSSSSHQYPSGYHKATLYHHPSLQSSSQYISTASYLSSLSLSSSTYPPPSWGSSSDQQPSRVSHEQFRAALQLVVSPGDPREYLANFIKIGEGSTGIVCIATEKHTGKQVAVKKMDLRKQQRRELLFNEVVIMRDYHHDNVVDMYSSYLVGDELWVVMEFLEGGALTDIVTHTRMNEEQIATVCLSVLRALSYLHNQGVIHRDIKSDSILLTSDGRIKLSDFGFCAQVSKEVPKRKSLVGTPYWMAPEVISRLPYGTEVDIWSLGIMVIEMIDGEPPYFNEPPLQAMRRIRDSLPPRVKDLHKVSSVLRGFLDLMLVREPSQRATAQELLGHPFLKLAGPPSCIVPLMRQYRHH

Row | Compound | residual activity [1] | inhibition [2] | inhibition [3] | residual activity [4] | residual activity (Homo sapiens [5]) | inhibition [6] | inhibition [7] | residual activity [8] | residual activity [9] | residual activity (Homo sapiens [10]) | residual activity [11] | residual activity (Homo sapiens [12]) | residual activity [13] | residual activity [14] | residual activity [15]
1 | C[C@@H](N)[C@H]1CC[C@H](C(=O)Nc2ccncc2)CC1 | 69% | 91% | 43% | 44% | 105% | 11% | 77% | 101% | 104% | – | – | – | – | – | –
2 | CCn1c(-c2nonc2N)nc2cnc(Oc3cccc(NC(=O)c4ccc(OCCN5CCOCC5)cc4)c3)cc21 [GSK-269962A] | – | – | – | – | – | – | – | – | – | 50% | 24% | – | – | – | –
3 | O=S(=O)(c1cccc2cnccc12)N1CCCNCC1 [FASUDIL] | 129% | 86% | 38% | 27% | 70% | 67% | 60% | 112% | 127% | – | – | – | – | – | –
4 | Cc1cncc2cccc(S(=O)(=O)N3CCCNC[C@@H]3C)c12 | – | – | – | – | – | – | – | – | – | – | – | 82% | 125% | 84% | 17%
5 | CC1=C(C(=O)Nc2cc3cn[nH]c3cc2F)C(c2ccc(C(F)(F)F)cc2)CC(=O)N1 (stereo not given) | – | – | – | – | – | – | – | – | – | 49% | 131% | 117% | 71% | 82% | 91%
